Reference: PubChem BioAssay (NCI)
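Results reflect a 48-hour exposure of cells in 96-well plates to compound at five concentrations. GI50: concentration for 50% inhibition of growth. TGI: total growth inhibition.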

Columns and labels:
Assay in all cases: NCI anticancer screen, dose series, 48 h
CAKI-1 renal = tested on: CAKI-1 renal
UACC-62 melanoma = tested on: UACC-62 melanoma
A549 NSCLC = tested on: A549 NSCLC
T-47D breast = tested on: T-47D breast
OVCAR-3 ovarian = tested on: OVCAR-3 ovarian
NCI-H226 lung = tested on: NCI-H226 lung
A498 renal = tested on: A498 renal
UO-31 renal = tested on: UO-31 renal
HCC-2998 colon = tested on: HCC-2998 colon
SW-620 colon = tested on: SW-620 colon
CCRF-CEM leukemia = tested on: CCRF-CEM leukemia
SF-268 CNS = tested on: SF-268 CNS
TK-10 renal = tested on: TK-10 renal
SK-MEL-2 melanoma = tested on: SK-MEL-2 melanoma
MDA-MB-435 = tested on: MDA-MB-435
SK-MEL-28 melanoma = tested on: SK-MEL-28 melanoma
ACHN renal = tested on: ACHN renal
SR leukemia = tested on: SR leukemia
OVCAR-8 ovarian = tested on: OVCAR-8 ovarian
NCI/ADR-RES ovarian = tested on: NCI/ADR-RES ovarian
LOX IMVI melanoma = tested on: LOX IMVI melanoma
BT-549 breast = tested on: BT-549 breast
SK-MEL-5 melanoma = tested on: SK-MEL-5 melanoma
HS 578T breast = tested on: HS 578T breast
SK-OV-3 ovarian = tested on: SK-OV-3 ovarian
NCI-H460 lung = tested on: NCI-H460 lung
NCI-H23 lung = tested on: NCI-H23 lung
COLO 205 colon = tested on: COLO 205 colon
SN12C renal = tested on: SN12C renal
RXF 393 renal = tested on: RXF 393 renal
HCT-15 colon = tested on: HCT-15 colon
MALME-3M melanoma = tested on: MALME-3M melanoma
HT29 colon = tested on: HT29 colon
HOP-62 NSCLC = tested on: HOP-62 NSCLC
M14 melanoma = tested on: M14 melanoma
HOP-92 NSCLC = tested on: HOP-92 NSCLC
NCI-H522 lung = tested on: NCI-H522 lung
PC-3 prostate = tested on: PC-3 prostate
IGROV1 ovarian = tested on: IGROV1 ovarian
U251 CNS = tested on: U251 CNS
HCT-116 colon = tested on: HCT-116 colon
SNB-75 CNS = tested on: SNB-75 CNS
SF-295 CNS = tested on: SF-295 CNS
MOLT-4 leukemia = tested on: MOLT-4 leukemia
HL-60(TB) leukemia = tested on: HL-60(TB) leukemia
KM12 colon = tested on: KM12 colon
K-562 leukemia = tested on: K-562 leukemia
SF-539 CNS = tested on: SF-539 CNS
RPMI-8226 leukemia = tested on: RPMI-8226 leukemia
DU-145 prostate = tested on: DU-145 prostate
OVCAR-4 ovarian = tested on: OVCAR-4 ovarian
EKVX NSCLC = tested on: EKVX NSCLC
MCF7 breast = tested on: MCF7 breast
SNB-19 CNS = tested on: SNB-19 CNS
786-0 renal = tested on: 786-0 renal
MDA-MB-231 breast = tested on: MDA-MB-231 breast
OVCAR-5 ovarian = tested on: OVCAR-5 ovarian
UACC-257 melanoma = tested on: UACC-257 melanoma

Question: For `CC(C)c1ccc2c(c1)c(SC(C)(C)C)c(CC(C)(C)C(=O)O)n2Cc1ccc(Cl)cc1`, which GI50 (CAKI-1 renal) is on record?
Answer: 10.8 µM

Question: What about the TGI (CAKI-1 renal) of the same compound?
Answer: 25.8 µM

Question: And the GI50 (UACC-62 melanoma)?
Answer: 11.8 µM

Question: What about the TGI (UACC-62 melanoma) of the same compound?
Answer: 24 µM

Question: What about the GI50 (A549 NSCLC) of the same compound?
Answer: 3.27 µM

Question: What about the TGI (A549 NSCLC) of the same compound?
Answer: 14.1 µM

Question: What about the GI50 (T-47D breast) of the same compound?
Answer: 9.86 µM

Question: And the TGI (T-47D breast)?
Answer: 27.3 µM

Question: What about the GI50 (OVCAR-3 ovarian) of the same compound?
Answer: 6.36 µM

Question: What about the TGI (OVCAR-3 ovarian) of the same compound?
Answer: 19.8 µM

Question: What about the GI50 (NCI-H226 lung) of the same compound?
Answer: 12.6 µM

Question: And the TGI (NCI-H226 lung)?
Answer: 30.8 µM

Question: What about the GI50 (A498 renal) of the same compound?
Answer: 10.8 µM

Question: What about the TGI (A498 renal) of the same compound?
Answer: 23.3 µM

Question: And the GI50 (UO-31 renal)?
Answer: 7.72 µM

Question: And the TGI (UO-31 renal)?
Answer: 20.7 µM

Question: What about the GI50 (HCC-2998 colon) of the same compound?
Answer: 7.71 µM

Question: What about the TGI (HCC-2998 colon) of the same compound?
Answer: 20.4 µM

Question: And the GI50 (SW-620 colon)?
Answer: 12.4 µM

Question: What about the TGI (SW-620 colon) of the same compound?
Answer: 29.1 µM

Question: And the GI50 (CCRF-CEM leukemia)?
Answer: 4.27 µM

Question: What about the TGI (CCRF-CEM leukemia) of the same compound?
Answer: 29.1 µM

Question: What about the GI50 (SF-268 CNS) of the same compound?
Answer: 8.79 µM

Question: And the TGI (SF-268 CNS)?
Answer: 23.5 µM

Question: What about the GI50 (TK-10 renal) of the same compound?
Answer: 15.2 µM

Question: And the TGI (TK-10 renal)?
Answer: 30.6 µM

Question: And the GI50 (SK-MEL-2 melanoma)?
Answer: 7.5 µM

Question: And the TGI (SK-MEL-2 melanoma)?
Answer: 20.1 µM

Question: What about the GI50 (MDA-MB-435) of the same compound?
Answer: 10.2 µM

Question: What about the TGI (MDA-MB-435) of the same compound?
Answer: 26.1 µM

Question: And the GI50 (SK-MEL-28 melanoma)?
Answer: 11.3 µM

Question: And the TGI (SK-MEL-28 melanoma)?
Answer: 25.1 µM

Question: What about the GI50 (ACHN renal) of the same compound?
Answer: 11.6 µM

Question: What about the TGI (ACHN renal) of the same compound?
Answer: 24.3 µM

Question: What about the GI50 (SR leukemia) of the same compound?
Answer: 10.6 µM

Question: What about the TGI (SR leukemia) of the same compound?
Answer: 36.7 µM

Question: What about the GI50 (OVCAR-8 ovarian) of the same compound?
Answer: 6.81 µM

Question: And the TGI (OVCAR-8 ovarian)?
Answer: 19.6 µM

Question: What about the GI50 (NCI/ADR-RES ovarian) of the same compound?
Answer: 10.1 µM

Question: What about the TGI (NCI/ADR-RES ovarian) of the same compound?
Answer: 26.7 µM

Question: What about the GI50 (LOX IMVI melanoma) of the same compound?
Answer: 10.9 µM

Question: And the TGI (LOX IMVI melanoma)?
Answer: 24.7 µM

Question: What about the GI50 (BT-549 breast) of the same compound?
Answer: 9.79 µM

Question: And the TGI (BT-549 breast)?
Answer: 22.5 µM

Question: And the GI50 (SK-MEL-5 melanoma)?
Answer: 9.53 µM

Question: What about the TGI (SK-MEL-5 melanoma) of the same compound?
Answer: 22.4 µM

Question: What about the GI50 (HS 578T breast) of the same compound?
Answer: 11.4 µM

Question: And the TGI (HS 578T breast)?
Answer: 29.4 µM

Question: What about the GI50 (SK-OV-3 ovarian) of the same compound?
Answer: 14.1 µM

Question: What about the TGI (SK-OV-3 ovarian) of the same compound?
Answer: 29.8 µM

Question: And the GI50 (NCI-H460 lung)?
Answer: 4.23 µM

Question: And the TGI (NCI-H460 lung)?
Answer: 16.2 µM

Question: What about the GI50 (NCI-H23 lung) of the same compound?
Answer: 10.8 µM

Question: What about the TGI (NCI-H23 lung) of the same compound?
Answer: 28.1 µM

Question: What about the GI50 (COLO 205 colon) of the same compound?
Answer: 8.46 µM

Question: And the TGI (COLO 205 colon)?
Answer: 21.9 µM

Question: What about the GI50 (SN12C renal) of the same compound?
Answer: 12.2 µM

Question: And the TGI (SN12C renal)?
Answer: 25.3 µM

Question: What about the GI50 (RXF 393 renal) of the same compound?
Answer: 2.87 µM

Question: And the TGI (RXF 393 renal)?
Answer: 12.4 µM

Question: What about the GI50 (HCT-15 colon) of the same compound?
Answer: 8.8 µM

Question: What about the TGI (HCT-15 colon) of the same compound?
Answer: 23.4 µM

Question: And the GI50 (MALME-3M melanoma)?
Answer: 17.6 µM

Question: And the TGI (MALME-3M melanoma)?
Answer: 34 µM

Question: And the GI50 (HT29 colon)?
Answer: 5.75 µM

Question: And the TGI (HT29 colon)?
Answer: 16.9 µM

Question: And the GI50 (HOP-62 NSCLC)?
Answer: 12.4 µM

Question: And the TGI (HOP-62 NSCLC)?
Answer: 28.9 µM

Question: What about the GI50 (M14 melanoma) of the same compound?
Answer: 16.3 µM

Question: What about the TGI (M14 melanoma) of the same compound?
Answer: 36.5 µM

Question: What about the GI50 (HOP-92 NSCLC) of the same compound?
Answer: 7.49 µM

Question: And the TGI (HOP-92 NSCLC)?
Answer: 22.5 µM

Question: And the GI50 (NCI-H522 lung)?
Answer: 6.07 µM

Question: What about the TGI (NCI-H522 lung) of the same compound?
Answer: 18.1 µM

Question: What about the GI50 (PC-3 prostate) of the same compound?
Answer: 8.18 µM

Question: What about the TGI (PC-3 prostate) of the same compound?
Answer: 23.4 µM

Question: What about the GI50 (IGROV1 ovarian) of the same compound?
Answer: 10.5 µM

Question: And the TGI (IGROV1 ovarian)?
Answer: 23.5 µM

Question: And the GI50 (U251 CNS)?
Answer: 6.8 µM

Question: And the TGI (U251 CNS)?
Answer: 19.4 µM

Question: And the GI50 (HCT-116 colon)?
Answer: 9.1 µM

Question: What about the TGI (HCT-116 colon) of the same compound?
Answer: 25.6 µM

Question: And the GI50 (SNB-75 CNS)?
Answer: 9.76 µM

Question: What about the TGI (SNB-75 CNS) of the same compound?
Answer: 22.3 µM

Question: What about the GI50 (SF-295 CNS) of the same compound?
Answer: 6.69 µM

Question: And the TGI (SF-295 CNS)?
Answer: 22.2 µM

Question: And the GI50 (MOLT-4 leukemia)?
Answer: 1.64 µM

Question: What about the TGI (MOLT-4 leukemia) of the same compound?
Answer: 26.3 µM

Question: What about the GI50 (HL-60(TB) leukemia) of the same compound?
Answer: 8.5 µM

Question: And the TGI (HL-60(TB) leukemia)?
Answer: 30.3 µM

Question: And the GI50 (KM12 colon)?
Answer: 10.2 µM

Question: What about the TGI (KM12 colon) of the same compound?
Answer: 26.3 µM

Question: What about the GI50 (K-562 leukemia) of the same compound?
Answer: 7.48 µM

Question: What about the TGI (K-562 leukemia) of the same compound?
Answer: 37.8 µM

Question: What about the GI50 (SF-539 CNS) of the same compound?
Answer: 9.05 µM

Question: What about the TGI (SF-539 CNS) of the same compound?
Answer: 21.8 µM

Question: And the GI50 (RPMI-8226 leukemia)?
Answer: 5.17 µM

Question: And the TGI (RPMI-8226 leukemia)?
Answer: 41.8 µM

Question: And the GI50 (DU-145 prostate)?
Answer: 6.76 µM

Question: What about the TGI (DU-145 prostate) of the same compound?
Answer: 19 µM

Question: And the GI50 (OVCAR-4 ovarian)?
Answer: 16.9 µM

Question: And the TGI (OVCAR-4 ovarian)?
Answer: 49 µM

Question: And the GI50 (EKVX NSCLC)?
Answer: 4.42 µM

Question: What about the TGI (EKVX NSCLC) of the same compound?
Answer: 13 µM

Question: And the GI50 (MCF7 breast)?
Answer: 5.14 µM

Question: What about the TGI (MCF7 breast) of the same compound?
Answer: 19.4 µM

Question: And the GI50 (SNB-19 CNS)?
Answer: 8.45 µM

Question: And the TGI (SNB-19 CNS)?
Answer: 22.7 µM

Question: And the GI50 (786-0 renal)?
Answer: 11.1 µM

Question: And the TGI (786-0 renal)?
Answer: 27.7 µM

Question: What about the GI50 (MDA-MB-231 breast) of the same compound?
Answer: 12.6 µM

Question: And the TGI (MDA-MB-231 breast)?
Answer: 27.3 µM

Question: And the GI50 (OVCAR-5 ovarian)?
Answer: 14.9 µM

Question: What about the TGI (OVCAR-5 ovarian) of the same compound?
Answer: 29.2 µM

Question: What about the GI50 (UACC-257 melanoma) of the same compound?
Answer: 11 µM

Question: And the TGI (UACC-257 melanoma)?
Answer: 24.7 µM
